Test system: 439559-082-T-J2-PDC spheroids viability
Assay: Anticancer human tumor 439559-082-T-J2-PDC patient-derived colon adenocarcinoma cell line growth inhibition [GQUAD]
Conditions: for IC50: curve of first compound; for viability, T/C: stronger effect = lower value
Procedure, shortened: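 Tumor cells were grown as complex spheroids with HUVEC endothelial cells and mesenchymal stem cells as stroma. G-quadruplex stabilizers were combined with targeted agents over half-log dilutions from near the clinical Cmax, or from 10 microM.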

[1] = second compound 0.0316 µM, first compound 0.0316 µM
[2] = second compound 0.0316 µM, first compound 0.316 µM
[3] = second compound 0.1 µM, first compound 0.0316 µM
[4] = second compound 0.1 µM, first compound 0.316 µM
[5] = second compound 0.316 µM, first compound 0.0316 µM
[6] = second compound 0.316 µM, first compound 0.316 µM
[7] = second compound 1 µM, first compound 0.0316 µM
[8] = second compound 1 µM, first compound 0.316 µM
[9] = second compound 3.16 µM, first compound 0.0316 µM
[10] = second compound 3.16 µM, first compound 0.316 µM
[11] = second compound 10 µM, first compound 0.0316 µM
[12] = second compound 10 µM, first compound 0.316 µM
[13] = second compound 0.0316 µM, first compound 0.1 µM
[14] = second compound 0.0316 µM, first compound 1 µM
[15] = second compound 0.0316 µM, first compound 3.16 µM
[16] = second compound 0.0316 µM, first compound 10 µM
[17] = second compound 0.1 µM, first compound 0.1 µM
[18] = second compound 0.1 µM, first compound 1 µM
[19] = second compound 0.1 µM, first compound 3.16 µM
[20] = second compound 0.1 µM, first compound 10 µM
[21] = second compound 0.316 µM, first compound 0.1 µM
[22] = second compound 0.316 µM, first compound 1 µM
[23] = second compound 0.316 µM, first compound 3.16 µM
[24] = second compound 0.316 µM, first compound 10 µM
[25] = second compound 1 µM, first compound 0.1 µM
[26] = second compound 1 µM, first compound 1 µM
[27] = second compound 1 µM, first compound 3.16 µM
[28] = second compound 1 µM, first compound 10 µM
[29] = second compound 3.16 µM, first compound 0.1 µM
[30] = second compound 3.16 µM, first compound 1 µM
[31] = second compound 3.16 µM, first compound 3.16 µM
[32] = second compound 3.16 µM, first compound 10 µM
[33] = second compound 10 µM, first compound 0.1 µM
[34] = second compound 10 µM, first compound 1 µM
[35] = second compound 10 µM, first compound 3.16 µM
[36] = second compound 10 µM, first compound 10 µM
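Further: spheroids exposed to the agents for 7 days before readout.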
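Wherever viability, T/C is given: percent of luminescence signal in DMSO vehicle wells taken as 100% viability.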

## Cc1[nH]c2ccccc2c1CCNCc1ccc(/C=C/C(=O)NO)cc1 + CN(C)c1ccc(Nc2c3ccc(NC(=O)CCN4CCCC4)cc3nc3cc(NC(=O)CCN4CCCC4)ccc23)cc1
Second compound 0.0316 µM
  IC50: > 316 nM
Second compound 0.1 µM
  IC50: > 316 nM
Second compound 0.316 µM
  IC50: > 316 nM
Second compound 1 µM
  IC50: > 316 nM
Second compound 3.16 µM
  IC50: > 316 nM
Second compound 10 µM
  IC50: > 316 nM
Second compound 0.0316 µM, first compound 0.000999 µM
  viability, T/C: 105%
Second compound 0.0316 µM, first compound 0.00316 µM
  viability, T/C: 86.9%
Second compound 0.0316 µM, first compound 0.00999 µM
  viability, T/C: 91.8%
[1]
  viability, T/C: 87.3%
Second compound 0.0316 µM, first compound 0.0999 µM
  viability, T/C: 84.7%
[2]
  viability, T/C: 63.6%
Second compound 0.1 µM, first compound 0.000999 µM
  viability, T/C: 110%
Second compound 0.1 µM, first compound 0.00316 µM
  viability, T/C: 102%
Second compound 0.1 µM, first compound 0.00999 µM
  viability, T/C: 101%
[3]
  viability, T/C: 83.9%
Second compound 0.1 µM, first compound 0.0999 µM
  viability, T/C: 83.8%
[4]
  viability, T/C: 60.9%
Second compound 0.316 µM, first compound 0.000999 µM
  viability, T/C: 93.6%
Second compound 0.316 µM, first compound 0.00316 µM
  viability, T/C: 91.3%
Second compound 0.316 µM, first compound 0.00999 µM
  viability, T/C: 85.5%
[5]
  viability, T/C: 76.4%
Second compound 0.316 µM, first compound 0.0999 µM
  viability, T/C: 80%
[6]
  viability, T/C: 62.3%
Second compound 1 µM, first compound 0.000999 µM
  viability, T/C: 99.1%
Second compound 1 µM, first compound 0.00316 µM
  viability, T/C: 99.1%
Second compound 1 µM, first compound 0.00999 µM
  viability, T/C: 99.9%
[7]
  viability, T/C: 86.9%
Second compound 1 µM, first compound 0.0999 µM
  viability, T/C: 78.5%
[8]
  viability, T/C: 64.1%
Second compound 3.16 µM, first compound 0.000999 µM
  viability, T/C: 93.8%
Second compound 3.16 µM, first compound 0.00316 µM
  viability, T/C: 89.4%
Second compound 3.16 µM, first compound 0.00999 µM
  viability, T/C: 88.5%
[9]
  viability, T/C: 79.2%
Second compound 3.16 µM, first compound 0.0999 µM
  viability, T/C: 75.3%
[10]
  viability, T/C: 60.8%
Second compound 10 µM, first compound 0.000999 µM
  viability, T/C: 96.1%
Second compound 10 µM, first compound 0.00316 µM
  viability, T/C: 95.7%
Second compound 10 µM, first compound 0.00999 µM
  viability, T/C: 97.9%
[11]
  viability, T/C: 84.7%
Second compound 10 µM, first compound 0.0999 µM
  viability, T/C: 83%
[12]
  viability, T/C: 68.9%

## O=C(NO)c1cnc(N2CCN(S(=O)(=O)c3ccc4ccccc4c3)CC2)nc1 + CN(C)c1ccc(Nc2c3ccc(NC(=O)CCN4CCCC4)cc3nc3cc(NC(=O)CCN4CCCC4)ccc23)cc1
Second compound 0.0316 µM
  IC50: 445 nM
Second compound 0.1 µM
  IC50: 393 nM
Second compound 0.316 µM
  IC50: 334 nM
Second compound 1 µM
  IC50: 406 nM
Second compound 3.16 µM
  IC50: 402 nM
Second compound 10 µM
  IC50: 365 nM
[1]
  viability, T/C: 96.5%
[13]
  viability, T/C: 83.4%
[2]
  viability, T/C: 69.9%
[14]
  viability, T/C: 2.76%
[15]
  viability, T/C: 0.18%
[16]
  viability, T/C: 0.23%
[3]
  viability, T/C: 99.8%
[17]
  viability, T/C: 85.2%
[4]
  viability, T/C: 61.5%
[18]
  viability, T/C: 5.02%
[19]
  viability, T/C: 0.16%
[20]
  viability, T/C: 0.17%
[5]
  viability, T/C: 98.3%
[21]
  viability, T/C: 82%
[6]
  viability, T/C: 54.6%
[22]
  viability, T/C: 3.28%
[23]
  viability, T/C: 0.16%
[24]
  viability, T/C: 0.13%
[7]
  viability, T/C: 83.1%
[25]
  viability, T/C: 87.2%
[8]
  viability, T/C: 62.5%
[26]
  viability, T/C: 4.71%
[27]
  viability, T/C: 0.12%
[28]
  viability, T/C: 0.19%
[9]
  viability, T/C: 88.2%
[29]
  viability, T/C: 85.2%
[10]
  viability, T/C: 62.5%
[30]
  viability, T/C: 2.43%
[31]
  viability, T/C: 0.12%
[32]
  viability, T/C: 0.2%
[11]
  viability, T/C: 98.5%
[33]
  viability, T/C: 80.9%
[12]
  viability, T/C: 58.5%
[34]
  viability, T/C: 5.85%
[35]
  viability, T/C: 0.23%
[36]
  viability, T/C: 0.19%

## O=c1[nH]cc(F)c(=O)[nH]1 + CN(C)c1ccc(Nc2c3ccc(NC(=O)CCN4CCCC4)cc3nc3cc(NC(=O)CCN4CCCC4)ccc23)cc1
Second compound 0.0316 µM
  IC50: > 10000 nM
Second compound 0.1 µM
  IC50: > 10000 nM
Second compound 0.316 µM
  IC50: > 10000 nM
Second compound 1 µM
  IC50: > 10000 nM
Second compound 3.16 µM
  IC50: > 10000 nM
Second compound 10 µM
  IC50: > 10000 nM
[1]
  viability, T/C: 101%
[13]
  viability, T/C: 103%
[2]
  viability, T/C: 86.6%
[14]
  viability, T/C: 81.2%
[15]
  viability, T/C: 75.7%
[16]
  viability, T/C: 76%
[3]
  viability, T/C: 115%
[17]
  viability, T/C: 106%
[4]
  viability, T/C: 89%
[18]
  viability, T/C: 84.1%
[19]
  viability, T/C: 77.2%
[20]
  viability, T/C: 69.1%
[5]
  viability, T/C: 98.2%
[21]
  viability, T/C: 105%
[6]
  viability, T/C: 85.9%
[22]
  viability, T/C: 80.4%
[23]
  viability, T/C: 75%
[24]
  viability, T/C: 75.2%
[7]
  viability, T/C: 97.2%
[25]
  viability, T/C: 104%
[8]
  viability, T/C: 89%
[26]
  viability, T/C: 81.3%
[27]
  viability, T/C: 74.6%
[28]
  viability, T/C: 81.8%
[9]
  viability, T/C: 88.8%
[29]
  viability, T/C: 102%
[10]
  viability, T/C: 85.5%
[30]
  viability, T/C: 73.9%
[31]
  viability, T/C: 73.3%
[32]
  viability, T/C: 72.1%
[11]
  viability, T/C: 96.4%
[33]
  viability, T/C: 93.1%
[12]
  viability, T/C: 81.5%
[34]
  viability, T/C: 74.6%
[35]
  viability, T/C: 70.2%
[36]
  viability, T/C: 73.5%

Source: PubChem BioAssay AID2060510 (Molecular Pharmacology Branch, DTP, NCI, 2025)
